In patent US20250215029A1 (Recludix Pharma, Inc., priority 2022, published 2025):

Each compound was assayed against T1, pY705-STAT3 in PBMC (Homo sapiens, UniProt P40763) (assay: MSD-pSTAT-PBMC Assay (pSTAT3, IL-6 stimulated)). Details: PBMC, compound 3 hrs, then 10 ng/mL IL-6 for 10 min; Table 115; read-out: STAT3.
T1 construct: Cryopreserved Peripheral Blood Mononuclear Cells (PBMC) are from AllCells; host or cells: cryopreserved PBMC
Assay type: cell-based
Summary of the method: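 Human PBMCs were pretreated with compound for 3 h, then stimulated with 10 ng/mL IL-6 for 10 min. Lysate pY705-STAT3 was measured by MSD sandwich immunoassay (anti-STAT3 capture) and corrected for unstimulated background. Signal was normalized to DMSO, and IC50 came from variable-slope regression.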

T1 sequence (P40763 whole entry): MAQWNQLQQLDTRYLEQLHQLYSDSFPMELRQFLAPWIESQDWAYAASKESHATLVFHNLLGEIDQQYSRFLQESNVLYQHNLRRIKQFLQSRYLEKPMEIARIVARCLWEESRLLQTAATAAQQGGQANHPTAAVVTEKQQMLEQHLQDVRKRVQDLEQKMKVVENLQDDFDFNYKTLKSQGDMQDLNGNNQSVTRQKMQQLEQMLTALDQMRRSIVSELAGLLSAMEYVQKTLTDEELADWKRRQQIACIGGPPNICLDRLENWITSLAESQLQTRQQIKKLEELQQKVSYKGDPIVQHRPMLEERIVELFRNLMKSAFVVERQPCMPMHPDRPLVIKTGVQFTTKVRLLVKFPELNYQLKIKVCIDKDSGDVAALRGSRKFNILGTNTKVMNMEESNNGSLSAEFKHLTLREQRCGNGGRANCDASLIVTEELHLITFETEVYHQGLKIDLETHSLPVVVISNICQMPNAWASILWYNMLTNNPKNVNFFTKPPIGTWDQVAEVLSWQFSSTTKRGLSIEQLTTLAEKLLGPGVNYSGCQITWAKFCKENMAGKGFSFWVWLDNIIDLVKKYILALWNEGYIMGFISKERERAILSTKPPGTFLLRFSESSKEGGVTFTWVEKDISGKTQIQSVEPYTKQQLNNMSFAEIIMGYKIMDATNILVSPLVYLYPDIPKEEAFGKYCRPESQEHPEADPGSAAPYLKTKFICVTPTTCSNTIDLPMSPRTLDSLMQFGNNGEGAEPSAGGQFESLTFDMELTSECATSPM

`CCCOC(=O)[C@H](C)NP(=O)(Oc1ccccc1)C(F)c1ccc2sc(C(=O)N[C@H]3CCC[C@H]4CC[C@@H](C(=O)N5CC(c6cnccc6CC)C5)N4C3=O)cc2c1` (stereo partly drawn) [Compound 261, propyl (((2-(((3S,6S,9aS)-3-(3-(4-ethylpyridin-3-yl)azetidine-1-carbonyl)-5-oxooctahydro-1H-pyrrolo[1,2-a]azepin-6-yl)carbamoyl)benzo [b]thiophen-5-yl)fluoromethyl) (phenoxy)phosphoryl)-L-alaninate] and `CCCOC(=O)[C@H](C)NP(=O)(Oc1ccccc1)C(F)c1ccc2sc(C(=O)N[C@H]3CCC[C@H]4CC[C@@H](C(=O)N5CC(c6cccc(C#N)n6)C5)N4C3=O)cc2c1` (stereo partly drawn) [Compound 266, propyl (((2-(((3S,6S,9aS)-3-(3-(6-cyanopyridin-2-yl)azetidine-1-carbonyl)-5-oxooctahydro-1H-pyrrolo[1,2-a]azepin-6-yl)carbamoyl)benzo [b]thiophen-5-yl)fluoromethyl) (phenoxy)phosphoryl)-L-alaninate] cannot be ordered by IC50: < 100 nM for the first, < 100 nM for the second.

`CCCOC(=O)CNP(=O)(Cc1ccc2sc(C(=O)N[C@H]3CCC[C@H]4CC[C@@H](C(=O)N5CC(c6cccnc6)C5)N4C3=O)cc2c1)Oc1ccccc1` (stereo partly drawn) [Compound 264, propyl (((2-(((3S,6S,9aS)-5-oxo-3-(3-(pyridin-3-yl)azetidine-1-carbonyl)octahydro-1H-pyrrolo[1,2-a]azepin-6-yl)carbamoyl)benzo [b]thiophen-5-yl)methyl)(phenoxy)phosphoryl)glycinate] and `CCCOC(=O)[C@H](C)NP(=O)(Cc1ccc2sc(C(=O)N[C@H]3CCC[C@H]4CC[C@@H](C(=O)N5CC(c6cnccc6Cl)C5)N4C3=O)cc2c1)Oc1ccccc1` (stereo partly drawn) [Compound 268, propyl (((2-(((3S,6S,9aS)-3-(3-(4-chloropyridin-3-yl)azetidine-1-carbonyl)-5-oxooctahydro-1H-pyrrolo[1,2-a]azepin-6-yl)carbamoyl)benzo [b]thiophen-5-yl)methyl)(phenoxy)phosphoryl)-L-alaninate] fall in the same range of IC50: 100 to 1000 nM for the first, 100 to 1000 nM for the second.

`CCCOC(=O)[C@H](C)NP(=O)(Oc1ccccc1)C(F)c1ccc2sc(C(=O)N[C@H]3CCCC[C@H]4CC[C@@H](C(=O)NCc5cnc6[nH]cnc6c5)N4C3=O)cc2c1` (stereo partly drawn) [Compound 265, propyl (((2-(((3S,6S,10aS)-3-(((3H-imidazo[4,5-b]pyridin-6-yl)methyl)carbamoyl)-5-oxodecahydropyrrolo [1,2-a]azocin-6-yl)carbamoyl)benzo [b]thiophen-5-yl)fluoromethyl) (phenoxy)phosphoryl)-L-alaninate] and `CCCOC(=O)[C@H](C)NP(=O)(Cc1ccc2sc(C(=O)N[C@H]3CCC[C@H]4CC[C@@H](C(=O)N5CC(c6cnc(OC)cc6F)C5)N4C3=O)cc2c1)Oc1ccccc1` (stereo partly drawn) [Compound 271, propyl (((2-(((3S,6S,9aS)-3-(3-(4-fluoro-6-methoxypyridin-3-yl)azetidine-1-carbonyl)-5-oxooctahydro-1H-pyrrolo[1,2-a]azepin-6-yl)carbamoyl)benzo [b]thiophen-5-yl)methyl)(phenoxy)phosphoryl)-L-alaninate] fall in the same range of IC50: 100 to 1000 nM for the first, 100 to 1000 nM for the second.

`CCCOC(=O)[C@H](C)NP(=O)(Cc1ccc2sc(C(=O)N[C@H]3CCC[C@H]4CC[C@@H](C(=O)N5CC(c6cnccc6C6CC6)C5)N4C3=O)cc2c1)Oc1ccccc1` (stereo partly drawn) [Compound 267, propyl (((2-(((3S,6S,9aS)-3-(3-(4-cyclopropylpyridin-3-yl)azetidine-1-carbonyl)-5-oxooctahydro-1H-pyrrolo[1,2-a]azepin-6-yl)carbamoyl)benzo [b]thiophen-5-yl)methyl)(phenoxy)phosphoryl)-L-alaninate] was tested, and the IC50 was < 100 nM.
